According to patent US9556157B2, “Enhancer of zeste homolog 2 inhibitors” (GlaxoSmithKline Intellectual Property (No.2) Limited, priority 2013, dated 2017):
pIC50: −log10 of the molar value.

Tests used:
[1] = molecular target: T1, EZH2 within the PRC2 complex (Homo sapiens (Human), UniProt Q15910); test: EZH2 methyltransferase SPA, mononucleosome substrate (Assay Protocol 1); type: biochemical; details: mononucleosomes from HeLa cells, 3H-SAM
Procedure: Compounds contained herein were evaluated for their ability to inhibit the methyltransferase activity of EZH2 within the PRC2 complex. Human PRC2 complex was prepared by co-expressing each of the 5 member proteins (FLAG-EZH2, EED, SUZ12, RbAp48, AEBP2) in Sf9 cells followed by co-purification. Enzyme activity was measured in a scintillation proximity assay (SPA) where a tritiated methyl group is transferred from 3H-SAM to a lysine residue on Histone H3 of a mononucleosome, purified from HeLa cells. Mononucleosomes were captured on SPA beads and the resulting signal is read on a ViewLux plate reader.
(§1) Part A. Compound Preparation
• 1. Prepare 10 mM stock of compounds from solid in 100% DMSO. • 2. Set up an 11-point serial dilution (1:3 dilution, top concentration 10 mM) in 100% DMSO for each test compound in a 384 well plate leaving columns 6 and 18 for DMSO controls. • 3. Dispense 100 nL of compound from the dilution plate into reaction plates (Grenier Bio-One, 384-well, Cat#784075). Part B. Reagent Preparation Prepare the following solutions: • 1. 50 mM Tris-HCl, pH 8: Per 1 L of base buffer, combine 1 M Tris-HCl, pH 8 (50 mL) and distilled water (950 mL). • 2. 1× Assay Buffer: Per 10 mL of 1× Assay Buffer, combine 50 mM Tris-HCl, pH 8 (9958 uL), 1 M MgCl2 (20 uL), 2 M DTT (20 uL), and 10% Tween-20 (2 uL) to provide a final concentration of 50 mM Tris-HCl, pH 8, 2 mM MgCl2, 4 mM DTT, 0.002% Tween-20. • 3. 2× Enzyme Solution: Per 10 mL of 2× Enzyme Solution, combine 1× Assay Buffer and PRC2 complex to provide a final enzyme concentration of 10 nM. • 4. SPA Bead Suspension: Per 1 mL of SPA Bead Suspension, combine PS-PEI coated LEADSeeker beads (40 mg) and H2O (1 mL) to provide a final concentration of 40 mg/mL. • 5. […] Read plates • 1. Read the assay plates on the Viewlux Plate Reader utilizing the 613 nm emission filter with a 300 s read time. […]
(§2) Percent inhibition was calculated relative to the DMSO control for each compound concentration and the resulting values were fit using standard IC50 fitting parameters within the ABASE data fitting software package.

[2] = molecular target: T1, EZH2 within the PRC2 complex; test: EZH2 methyltransferase SPA, biotinylated histone H3K27 peptide substrate (Assay Protocol 2); type: biochemical; details: 3H-SAM
Procedure: Compounds contained herein were evaluated for their ability to inhibit the methyltransferase activity of EZH2 within the PRC2 complex. Human PRC2 complex was prepared by co-expressing each of the 5 member proteins (FLAG-EZH2, EED, SUZ12, RbAp48, AEBP2) in Sf9 cells followed by co-purification. Enzyme activity was measured in a scintillation proximity assay (SPA) where a tritiated methyl group is transferred from 3H-SAM to a lysine residue on a biotinylated, unmethylated peptide substrate derived from histone H3. The peptides were captured on streptavidin-coated SPA beads and the resulting signal was read on a ViewLux plate reader.
as §1
• 4. Prepare 10 mM stock of compounds from solid in 100% DMSO. • 5. Set up an 11-point serial dilution (1:4 dilution, top concentration 10 mM) in 100% DMSO for each test compound in a 384 well plate leaving columns 6 and 18 for DMSO controls. • 6. Dispense 10 nL of compound from the dilution plate into reaction plates (Corning, 384-well polystyrene NBS, Cat#3673). Part B. Reagent Preparation Prepare the following solutions: • 7. 1× Base Buffer, 50 mM Tris-HCl, pH 8, 2 mM MgCl2: Per 1 L of base buffer, combine 1 M Tris-HCl, pH 8 (50 mL), 1 M MgCl2 (2 mL), and distilled water (948 mL). • 8. 1× Assay Buffer: Per 10 mL of 1× Assay Buffer, combine 1× Base Buffer (9.96 mL), 1 M DTT (40 uL), and 10% Tween-20 (1 uL) to provide a final concentration of 50 mM Tris-HCl, pH 8, 2 mM MgCl2, 4 mM DTT, 0.001% Tween-20. • 9. 2× Enzyme Solution: Per 10 mL of 2× Enzyme Solution, combine 1× Assay Buffer (9.99 mL) and 3.24 uM EZH2 5 member complex (6.17 uL) to provide a final enzyme concentration of 1 nM.
10. […] Read plates • 2. Read the assay plates on the Viewlux Plate Reader utilizing the 613 nm emission filter or clear filter (300 s exposure). […]
as §2

T1 sequence (Q15910 whole entry): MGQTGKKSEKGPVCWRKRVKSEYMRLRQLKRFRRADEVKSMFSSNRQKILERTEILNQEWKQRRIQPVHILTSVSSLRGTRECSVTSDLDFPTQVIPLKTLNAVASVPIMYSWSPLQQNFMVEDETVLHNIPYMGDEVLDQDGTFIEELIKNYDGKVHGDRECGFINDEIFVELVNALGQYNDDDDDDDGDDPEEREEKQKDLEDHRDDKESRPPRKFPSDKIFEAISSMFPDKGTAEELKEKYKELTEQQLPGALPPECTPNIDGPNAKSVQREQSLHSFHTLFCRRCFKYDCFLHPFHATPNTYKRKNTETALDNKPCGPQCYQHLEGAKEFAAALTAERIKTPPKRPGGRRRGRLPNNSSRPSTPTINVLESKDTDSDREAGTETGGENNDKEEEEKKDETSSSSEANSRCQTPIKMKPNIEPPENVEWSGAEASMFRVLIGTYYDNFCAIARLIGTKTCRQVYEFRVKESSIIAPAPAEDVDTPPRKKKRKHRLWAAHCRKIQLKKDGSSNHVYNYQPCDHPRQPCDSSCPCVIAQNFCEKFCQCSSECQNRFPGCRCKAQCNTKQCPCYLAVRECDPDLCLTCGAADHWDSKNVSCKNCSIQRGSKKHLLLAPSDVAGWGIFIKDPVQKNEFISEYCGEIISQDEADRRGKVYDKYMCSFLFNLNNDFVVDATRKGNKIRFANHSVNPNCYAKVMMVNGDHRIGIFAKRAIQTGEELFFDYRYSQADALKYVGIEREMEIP
T1 sequence (O75530 whole entry partner): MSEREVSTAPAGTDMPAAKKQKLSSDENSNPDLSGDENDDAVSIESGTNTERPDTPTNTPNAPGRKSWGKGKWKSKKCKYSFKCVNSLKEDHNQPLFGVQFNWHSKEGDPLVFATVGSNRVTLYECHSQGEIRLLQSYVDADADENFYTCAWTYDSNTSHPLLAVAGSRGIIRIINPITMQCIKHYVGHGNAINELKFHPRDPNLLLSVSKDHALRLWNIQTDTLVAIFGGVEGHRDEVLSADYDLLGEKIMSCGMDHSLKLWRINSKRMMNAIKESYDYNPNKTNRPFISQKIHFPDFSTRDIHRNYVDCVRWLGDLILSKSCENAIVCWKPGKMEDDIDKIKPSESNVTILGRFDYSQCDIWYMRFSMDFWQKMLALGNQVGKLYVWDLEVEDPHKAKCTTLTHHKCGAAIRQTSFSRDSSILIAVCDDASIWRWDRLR
T1 sequence (Q15022 whole entry partner): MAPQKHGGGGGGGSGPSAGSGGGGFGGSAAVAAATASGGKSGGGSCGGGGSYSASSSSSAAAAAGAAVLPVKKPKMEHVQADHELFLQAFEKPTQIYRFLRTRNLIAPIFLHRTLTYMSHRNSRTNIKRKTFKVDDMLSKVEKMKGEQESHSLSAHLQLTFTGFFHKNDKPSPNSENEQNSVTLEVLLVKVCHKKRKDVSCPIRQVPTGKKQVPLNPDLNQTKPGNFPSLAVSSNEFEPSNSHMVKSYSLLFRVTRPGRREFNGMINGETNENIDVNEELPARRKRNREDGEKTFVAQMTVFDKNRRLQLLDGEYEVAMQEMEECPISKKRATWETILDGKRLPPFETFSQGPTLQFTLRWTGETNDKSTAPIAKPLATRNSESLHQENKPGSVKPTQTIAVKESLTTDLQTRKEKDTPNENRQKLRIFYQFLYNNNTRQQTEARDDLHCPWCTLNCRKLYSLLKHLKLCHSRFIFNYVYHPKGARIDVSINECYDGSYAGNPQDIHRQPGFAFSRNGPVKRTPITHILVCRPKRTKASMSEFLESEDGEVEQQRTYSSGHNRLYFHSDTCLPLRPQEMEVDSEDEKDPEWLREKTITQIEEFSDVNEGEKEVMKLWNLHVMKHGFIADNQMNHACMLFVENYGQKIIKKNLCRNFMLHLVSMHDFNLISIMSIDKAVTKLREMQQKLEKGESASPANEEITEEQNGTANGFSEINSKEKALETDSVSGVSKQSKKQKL
T1 sequence (Q09028 whole entry partner): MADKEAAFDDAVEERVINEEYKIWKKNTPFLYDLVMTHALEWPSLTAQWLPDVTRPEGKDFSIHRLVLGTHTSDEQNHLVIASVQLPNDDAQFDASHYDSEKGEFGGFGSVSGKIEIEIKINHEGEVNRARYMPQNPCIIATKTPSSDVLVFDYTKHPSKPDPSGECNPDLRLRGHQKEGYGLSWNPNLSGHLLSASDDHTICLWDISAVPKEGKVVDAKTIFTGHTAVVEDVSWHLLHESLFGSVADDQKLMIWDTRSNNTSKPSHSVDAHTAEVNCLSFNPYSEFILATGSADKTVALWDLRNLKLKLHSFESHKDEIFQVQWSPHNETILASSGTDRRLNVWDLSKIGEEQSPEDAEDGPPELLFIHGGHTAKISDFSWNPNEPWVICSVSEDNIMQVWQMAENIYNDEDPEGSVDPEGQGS
T1 sequence (Q6ZN18 whole entry partner): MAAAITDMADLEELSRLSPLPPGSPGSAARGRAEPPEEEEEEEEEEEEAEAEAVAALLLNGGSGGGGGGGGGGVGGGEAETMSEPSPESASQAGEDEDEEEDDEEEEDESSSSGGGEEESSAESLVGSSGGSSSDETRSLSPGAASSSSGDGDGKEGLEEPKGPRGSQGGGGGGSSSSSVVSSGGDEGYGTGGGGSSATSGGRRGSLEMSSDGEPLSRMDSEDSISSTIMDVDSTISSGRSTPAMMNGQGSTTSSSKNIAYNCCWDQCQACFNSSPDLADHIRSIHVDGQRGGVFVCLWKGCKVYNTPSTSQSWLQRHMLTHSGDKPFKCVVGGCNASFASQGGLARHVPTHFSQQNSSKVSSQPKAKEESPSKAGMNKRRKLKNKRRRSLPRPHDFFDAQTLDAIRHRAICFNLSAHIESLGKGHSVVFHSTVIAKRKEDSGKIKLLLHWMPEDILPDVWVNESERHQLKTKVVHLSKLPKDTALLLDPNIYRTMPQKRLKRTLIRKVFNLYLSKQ

pIC50 [1]	pIC50 [2]	SMILES
6.50	–	CCN(c1scc(C(=O)NCc2c(C)[nH]c(C)cc2=O)c1C)C1CCOCC1 [Example 1, N-((2,6-dimethyl-4-oxo-1,4-dihydropyridin-3-yl)methyl)-5-(ethyl(tetrahydro-2H-pyran-4-yl)amino)-4-methylthiophene-3-carboxamide]
7.49	7.00	CCN(c1scc(C(=O)NCc2c(C)[nH]c(C)cc2=O)c1C)[C@H]1CC[C@H](N(C)C)CC1 [Example 2, N-((2,6-dimethyl-4-oxo-1,4-dihydropyridin-3-yl)methyl)-5-(((trans)-4-(dimethylamino)cyclohexyl)(ethyl)amino)-4-methylthiophene-3-carboxamide]
7.49	7.80	CCN(c1scc(C(=O)NCc2c(C)[nH]c(C)c(N)c2=O)c1C)[C@H]1CC[C@H](N(C)C)CC1 [Example 3, N-((5-amino-2,6-dimethyl-4-oxo-1,4-dihydropyridin-3-yl)methyl)-5-(((trans)-4-(dimethylamino)cyclohexyl)(ethyl)amino)-4-methylthiophene-3-carboxamide]
–	6.80	CCN(c1sc(Br)c(C(=O)NCc2c(C)[nH]c(C)cc2=O)c1C)[C@H]1CC[C@H](N(C)C)CC1 [Example 4, 2-Bromo-N-((2,6-dimethyl-4-oxo-1,4-dihydropyridin-3-yl)methyl)-5-(((trans)-4-(dimethylamino)cyclohexyl)(ethyl)amino)-4-methylthiophene-3-carboxamide]
